Biological target: SIK2 (Homo sapiens (Human), UniProt Q9H0K1)
Test: SIK2 Enzymatic Assay Version 2 (High ATP)
Assay type: biochemical
Settings: 3 mM ATP and 200 μM HDAC5tide final, ADP-Glo Max luminescence
In short: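 Run at room temperature; SIK2 enzyme at 6 nM (2× final) preincubated with compound 30 min before reaction. ADP formation detected by ADP-Glo Max (2 h reagent, 1 h detection) with luminescence read-out.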

SIK2, sequence (Q9H0K1 whole entry, species assumed): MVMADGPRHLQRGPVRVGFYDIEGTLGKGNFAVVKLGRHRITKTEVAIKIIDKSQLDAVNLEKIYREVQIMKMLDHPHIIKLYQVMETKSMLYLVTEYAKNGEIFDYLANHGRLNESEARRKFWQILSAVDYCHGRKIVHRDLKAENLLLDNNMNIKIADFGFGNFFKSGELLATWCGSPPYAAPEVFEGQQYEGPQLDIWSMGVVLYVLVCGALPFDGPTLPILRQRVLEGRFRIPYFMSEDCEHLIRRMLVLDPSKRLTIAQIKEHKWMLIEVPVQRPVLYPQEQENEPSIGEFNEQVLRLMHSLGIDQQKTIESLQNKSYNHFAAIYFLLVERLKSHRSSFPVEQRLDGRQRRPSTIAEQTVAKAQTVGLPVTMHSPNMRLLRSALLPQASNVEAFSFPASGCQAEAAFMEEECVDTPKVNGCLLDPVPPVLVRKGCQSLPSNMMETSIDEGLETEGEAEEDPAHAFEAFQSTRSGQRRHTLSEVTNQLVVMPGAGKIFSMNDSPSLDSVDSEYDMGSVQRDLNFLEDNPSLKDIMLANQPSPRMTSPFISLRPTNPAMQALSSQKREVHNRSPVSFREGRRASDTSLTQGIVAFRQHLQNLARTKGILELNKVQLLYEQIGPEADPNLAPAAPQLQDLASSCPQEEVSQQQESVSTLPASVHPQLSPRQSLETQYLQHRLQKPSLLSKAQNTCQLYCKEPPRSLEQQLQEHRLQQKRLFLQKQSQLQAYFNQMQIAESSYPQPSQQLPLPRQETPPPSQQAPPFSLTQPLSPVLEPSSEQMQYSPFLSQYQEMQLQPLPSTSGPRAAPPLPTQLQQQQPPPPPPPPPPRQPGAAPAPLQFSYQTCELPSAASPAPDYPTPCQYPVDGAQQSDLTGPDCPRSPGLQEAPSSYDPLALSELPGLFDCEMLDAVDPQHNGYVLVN

IC50 | SMILES
1.7 nM | C[C@@H]1C[C@H]1C(=O)Nc1cc2cc(-c3c(OC[C@H]4CCN4C)cnn3C)ccn2n1 [Example 14, (1R,2R)-2-methyl-N-[5-[2-methyl-4-[[(2R)-1-methylazetidin-2-yl]methoxy]pyrazol-3-yl]pyrazolo[1,5-a]pyridin-2-yl]cyclopropanecarboxamide]
9.1 nM | C[C@H]1C[C@@H]1C(=O)Nc1cc2cc(-c3c(OC[C@H]4CCN4C)cnn3C)ccn2n1 [Example 15, (1S,2S)-2-methyl-N-[5-[2-methyl-4-[[(2R)-1-methylazetidin-2-yl]methoxy]pyrazol-3-yl]pyrazolo[1,5-a]pyridin-2-yl]cyclopropanecarboxamide]
< 0.847 nM | Cc1cc(Nc2cc3cc(-c4c(OC[C@H]5CCN5C)cnn4C)ccn3n2)nnc1C [Example 17, N-(5,6-Dimethylpyridazin-3-yl)-5-[2-methyl-4-[[(2R)-1-methylazetidin-2-yl]methoxy]pyrazol-3-yl]pyrazolo[1,5-a]pyridin-2-amine]
1 nM | CCN1CC[C@@H]1COc1cnn(C)c1-c1ccn2nc(Nc3cc(C)c(C)nn3)cc2c1 [Example 18, (R)—N-(5,6-Dimethylpyridazin-3-yl)-5-(4-((1-ethylazetidin-2-yl)methoxy)-1-methyl-1H-pyrazol-5-yl)pyrazolo[1,5-a]pyridin-2-amine]
1.2 nM | CCN1CC[C@@H]1COc1cnn(C)c1-c1ccn2nc(Nc3cc(C)ncn3)cc2c1 [Example 19, 5-[4-[[(2R)-1-Ethylazetidin-2-yl]methoxy]-2-methyl-pyrazol-3-yl]-N-(6-methylpyrimidin-4-yl)pyrazolo[1,5-a]pyridin-2-amine]
< 0.847 nM | CCN1CC[C@@H]1COc1cnn(C)c1-c1ccn2nc(Nc3cncc(C)n3)cc2c1 [Example 20, (R)-5-(4-((1-Ethylazetidin-2-yl)methoxy)-1-methyl-1H-pyrazol-5-yl)-N-(6-methylpyrazin-2-yl)pyrazolo[1,5-a]pyridin-2-amine]
0.9 nM | CCN1CC[C@@H]1COc1cnn(C)c1-c1ccn2nc(Nc3cnc(C)cn3)cc2c1 [Example 21, (R)-5-(4-((1-Ethylazetidin-2-yl)methoxy)-1-methyl-1H-pyrazol-5-yl)-N-(5-methylpyrazin-2-yl)pyrazolo[1,5-a]pyridin-2-amine]
< 0.847 nM | CCN1CC[C@@H]1COc1cnn(C)c1-c1ccn2nc(Nc3cnc(C)c(C)n3)cc2c1 [Example 22, (R)—N-(5,6-Dimethylpyrazin-2-yl)-5-(4-((1-ethylazetidin-2-yl)methoxy)-1-methyl-1H-pyrazol-5-yl)pyrazolo[1,5-a]pyridin-2-amine]
1.2 nM | Cc1ncc(Nc2cc3cc(-c4c(OC[C@H]5CCN5C)cnn4C)ccn3n2)nc1C [Example 23, N-(5,6-Dimethylpyrazin-2-yl)-5-[2-methyl-4-[[(2R)-1-methylazetidin-2-yl]methoxy]pyrazol-3-yl]pyrazolo[1,5-a]pyridin-2-amine]
319 nM | CN1CC[C@@H]1COc1cnn(C)c1-c1ccn2nc(NC(=O)c3cnn(C)c3)cc2c1 [Example 26, 1-methyl-N-[5-[2-methyl-4-[[(2R)-1-methylazetidin-2-yl]methoxy]pyrazol-3-yl]pyrazolo[1,5-a]pyridin-2-yl]pyrazole-4-carboxamide]
1.3 nM | Cc1cc(Nc2cc3cc(-c4c(OC[C@H]5CCN5C)cnn4C(F)F)ccn3n2)nn(C)c1=O [Example 33, 6-[[5-[2-(difluoromethyl)-4-[[(2R)-1-methylazetidin-2-yl]methoxy]pyrazol-3-yl]pyrazolo[1,5-a]pyridin-2-yl]amino]-2,4-dimethyl-pyridazin-3-one]
10.3 nM | CN1CC[C@@H]1COc1cnn(C)c1-c1ccn2nc(Nc3ccc(C(=O)NCC(C)(C)C#N)cn3)cc2c1 [Example 36, N-(2-cyano-2-methyl-propyl)-6-[[5-[2-methyl-4-[[(2R)-1-methylazetidin-2-yl]methoxy]pyrazol-3-yl]pyrazolo[1,5-a]pyridin-2-yl]amino]pyridine-3-carboxamide]
42.9 nM | COc1cc(Nc2cc3cc(-c4c(OC[C@H]5CCN5C)cnn4C)ccn3n2)cc(OC)c1C(=O)NC(C)C [Example 37, N-isopropyl-2,6-dimethoxy-4-[[5-[2-methyl-4-[[(2R)-1-methylazetidin-2-yl]methoxy]pyrazol-3-yl]pyrazolo[1,5-a]pyridin-2-yl]amino]benzamide]
3.4 nM | Cc1ccc(Nc2cc3cc(-c4c(OC[C@H]5CCN5C)cnn4C)ccn3n2)nn1 [Example 39, 5-[2-methyl-4-[[(2R)-1-methylazetidin-2-yl]methoxy]pyrazol-3-yl]-N-(6-methylpyridazin-3-yl)pyrazolo[1,5-a]pyridin-2-amine]
14.6 nM | Cc1cc(Nc2cc3cc(-c4c(OC[C@H]5CCN5)cnn4C)ccn3n2)nc(C)n1 [Example 42, 5-[4-[[(2R)-azetidin-2-yl]methoxy]-2-methyl-pyrazol-3-yl]-N-(2,6-dimethylpyrimidin-4-yl)pyrazolo[1,5-a]pyridin-2-amine]
24.1 nM | Cc1cncc(Nc2cc3cc(-c4c(OC[C@H]5CCN5)cnn4C)ccn3n2)n1 [Example 45, 5-[4-[[(2R)-azetidin-2-yl]methoxy]-2-methyl-pyrazol-3-yl]-N-(6-methylpyrazin-2-yl)pyrazolo[1,5-a]pyridin-2-amine]
2.5 nM | Cc1cncc(Nc2cc3cc(-c4c(OC[C@H]5CCN5C)cnn4C)ccn3n2)n1 [Example 46, 5-[2-methyl-4-[[(2R)-1-methylazetidin-2-yl]methoxy]pyrazol-3-yl]-N-(6-methylpyrazin-2-yl)pyrazolo[1,5-a]pyridin-2-amine]

Further lines, the compound ahead of its results:

SMILES | IC50
CN1C[C@@H](C(F)(F)F)[C@@H]1COc1cnn(C)c1-c1ccn2nc(NC(=O)C3CC3)cc2c1 [Example 10, N-[5-[2-methyl-4-[[(2R,3R)-1-methyl-3-(trifluoromethyl)azetidin-2-yl]methoxy]pyrazol-3-yl]pyrazolo[1,5-a]pyridin-2-yl]cyclopropanecarboxamide] | 988 nM
CC[C@@H]1CN(C)[C@@H]1COc1cnn(C)c1-c1ccn2nc(NC(=O)C3CC3)cc2c1 [Example 11, N-[5-[4-[[(2S,3R)-3-ethyl-1-methyl-azetidin-2-yl]methoxy]-2-methyl-pyrazol-3-yl]pyrazolo[1,5-a]pyridin-2-yl]cyclopropanecarboxamide] | 117 nM
C[C@H]1CN(C)[C@@H]1COc1cnn(C)c1-c1ccn2nc(NC(=O)C3CC3)cc2c1 [Example 12, N-[5-[4-[[(2S,3S)-1,3-dimethylazetidin-2-yl]methoxy]-2-methyl-pyrazol-3-yl]pyrazolo[1,5-a]pyridin-2-yl]cyclopropanecarboxamide] | 117 nM
C[C@@H]1CN(C)[C@H]1COc1cnn(C)c1-c1ccn2nc(NC(=O)C3CC3)cc2c1 [Example 24, N-[5-[4-[[(2R,3R)-1,3-Dimethylazetidin-2-yl]methoxy]-2-methyl-pyrazol-3-yl]pyrazolo[1,5-a]pyridin-2-yl]cyclopropanecarboxamide] | 34.9 nM
CCN1CC[C@@H]1COc1cnn(C)c1-c1ccn2nc(NC(=O)[C@H]3C[C@@H]3C)cc2c1 [Example 25, (1S,2S)—N-[5-[4-[[(2R)-1-ethylazetidin-2-yl]methoxy]-2-methyl-pyrazol-3-yl]pyrazolo[1,5-a]pyridin-2-yl]-2-methyl-cyclopropanecarboxamide] | 5.8 nM
Cn1ncc(OC[C@@H](O)c2ccccc2)c1-c1ccn2nc(NC(=O)C3CC3)cc2c1 [Example 27, N-[5-[4-[(2S)-2-hydroxy-2-phenyl-ethoxy]-2-methyl-pyrazol-3-yl]pyrazolo[1,5-a]pyridin-2-yl]cyclopropanecarboxamide] | 11.8 nM
COC1(COc2noc(C)c2-c2ccn3nc(NC(=O)C4CC4)cc3c2)CN(C)C1 [Example 29, N-[5-[3-[(3-methoxy-1-methyl-azetidin-3-yl)methoxy]-5-methyl-isoxazol-4-yl]pyrazolo[1,5-a]pyridin-2-yl]cyclopropanecarboxamide] | 360 nM
COC1(COc2noc(C)c2-c2ccn3nc(Nc4cc(C)nc(C)n4)cc3c2)CNC1 [Example 30, N-(2,6-dimethylpyrimidin-4-yl)-5-[3-[(3-methoxyazetidin-3-yl)methoxy]-5-methyl-isoxazol-4-yl]pyrazolo[1,5-a]pyridin-2-amine] | 5.2 nM
Cc1onc(OC[C@@H](N)c2ccccc2)c1-c1ccn2nc(NC(=O)C3CC3)cc2c1 [Example 31, N-[5-[3-[(2S)-2-amino-2-phenyl-ethoxy]-5-methyl-isoxazol-4-yl]pyrazolo[1,5-a]pyridin-2-yl]cyclopropanecarboxamide] | 1 nM
Cc1cc(Nc2cc3cc(-c4c(O[C@@H]5CNC[C@@H]5F)cnn4C(F)F)ccn3n2)nc(C)n1 [Example 32, 5-[2-(difluoromethyl)-4-[(3R,4S)-4-fluoropyrrolidin-3-yl]oxy-pyrazol-3-yl]-N-(2,6-dimethylpyrimidin-4-yl)pyrazolo[1,5-a]pyridin-2-amine] | 6.6 nM
Cn1ncc(O[C@@H]2C[C@H]3COC[C@@H](C2)N3)c1-c1ccn2nc(NC(=O)C3CC3)cc2c1 [Example 43, exo-N-[5-[2-methyl-4-[[(1R,5S)-3-oxa-9-azabicyclo[3.3.1]nonan-7-yl]oxy]pyrazol-3-yl]pyrazolo[1,5-a]pyridin-2-yl]cyclopropanecarboxamide] | 17.3 nM
Cn1ncc(OCC2(c3ccccc3)CNC2)c1-c1ccn2nc(NC(=O)C3CC3)cc2c1 [Example 44, N-[5-[2-methyl-4-[(3-phenylazetidin-3-yl)methoxy]pyrazol-3-yl]pyrazolo[1,5-a]pyridin-2-yl]cyclopropanecarboxamide] | 17.6 nM
CCN1CC[C@H]1COc1cnn(C)c1-c1ccn2nc(NC(=O)C3CC3)cc2c1 [Example 47, N-[5-[4-[[(2S)-1-ethylazetidin-2-yl]methoxy]-2-methyl-pyrazol-3-yl]pyrazolo[1,5-a]pyridin-2-yl]cyclopropanecarboxamide] | 87.7 nM
CC(C)N1CC[C@H]1COc1cnn(C)c1-c1ccn2nc(NC(=O)C3CC3)cc2c1 [Example 48, N-[5-[4-[[(2S)-1-isopropylazetidin-2-yl]methoxy]-2-methyl-pyrazol-3-yl]pyrazolo[1,5-a]pyridin-2-yl]cyclopropanecarboxamide] | 269 nM
